Laboratory results from the NIST ThermoML archive (doi:10.1016/j.fluid.2010.05.001).

How the values were obtained:
[1] = 101.33 kPa, Liquid, Vibrating tube method
[2] = xn = mol fraction of the nth substance listed; conditions: 101 kPa, Liquid, Vibrating tube method

CC1CCCCN1 (centres undefined) [2-methylpiperidine]
[1]
Conditions	mass density [kg/m3]	molar volume [m3/mol]
288.15 K	846.703	0.0001171
298.15 K	835.787	0.0001187
308.15 K	826.08	0.0001201
318.15 K	817.349	0.0001213
328.15 K	809.08	0.0001226
338.15 K	801.96	0.0001237

CC1CCCCN1 (centres undefined) [2-methylpiperidine] + O
[2]
Conditions	mass density [kg/m3]
288.15 K, x1 = 0.022	992.158
288.15 K, x1 = 0.0488	982.491
288.15 K, x1 = 0.0966	965.22
288.15 K, x1 = 0.1901	940.03
288.15 K, x1 = 0.3019	918.147
288.15 K, x1 = 0.4006	904.274
288.15 K, x1 = 0.47	896.239
288.15 K, x1 = 0.59	883.489
288.15 K, x1 = 0.685	874.59
288.15 K, x1 = 0.775	866.186
288.15 K, x1 = 0.813	863.581
298.15 K, x1 = 0.0506	976.147
298.15 K, x1 = 0.0951	957.78
298.15 K, x1 = 0.1955	930.75
298.15 K, x1 = 0.288	911.236
298.15 K, x1 = 0.3958	894.275
298.15 K, x1 = 0.45	886.977
298.15 K, x1 = 0.4708	884.952
298.15 K, x1 = 0.5925	871.352
298.15 K, x1 = 0.7	860.793
298.15 K, x1 = 0.8043	851.545
308.15 K, x1 = 0.0506	969.86
308.15 K, x1 = 0.0951	951.024
308.15 K, x1 = 0.1955	921.38
308.15 K, x1 = 0.288	902.606
308.15 K, x1 = 0.388	886.089
308.15 K, x1 = 0.463	875.982
308.15 K, x1 = 0.585	861.756
308.15 K, x1 = 0.6501	855.347
318.15 K, x1 = 0.0506	963.421
318.15 K, x1 = 0.0951	943.575
318.15 K, x1 = 0.1955	912.95
318.15 K, x1 = 0.288	893.567
318.15 K, x1 = 0.388	876.681
318.15 K, x1 = 0.463	866.663
318.15 K, x1 = 0.585	852.312
318.15 K, x1 = 0.6501	846.574
328.15 K, x1 = 0.05	957.601
328.15 K, x1 = 0.0982	935.269
328.15 K, x1 = 0.3019	883.044
328.15 K, x1 = 0.4006	867.078
328.15 K, x1 = 0.4585	859.202
328.15 K, x1 = 0.5699	846.009
328.15 K, x1 = 0.6591	836.942
328.15 K, x1 = 0.775	826.192
338.15 K, x1 = 0.0951	926.141
338.15 K, x1 = 0.1901	897.2
338.15 K, x1 = 0.3019	873.469
338.15 K, x1 = 0.365	863.604
338.15 K, x1 = 0.4585	850.39
338.15 K, x1 = 0.5925	834.463
338.15 K, x1 = 0.8043	816.519
